These results are taken from ChEMBL document CHEMBL4385643, “Design of a brain-penetrant CDK4/6 inhibitor for glioblastoma” (Bioorg Med Chem Lett, 2019).

Structures are written as SMILES.

In test [1] the target is Ribosomal protein S6 kinase alpha-3 (Homo sapiens) (UniProt P51812). In words: Inhibition of recombinant full length human His-tagged RSK2 expressed in baculovirus expression system at 0.1 uM using serine/threonine-6 peptide as substrate incubated for 60 mins by Z'-LYTE assay relative to control.
The target of test [2] is CDK3/Cyclin E (Homo sapiens) (UniProt P24864+Q00526). In words: Inhibition of tracer 236 binding to recombinant human GST-tagged CDK3/CyclinE1 expressed by baculovirus in Sf9 insect cells expression system at 0.1 uM measured after 60 mins by Lanthascreen assay relative to control.
The target in test [3] is Serine/threonine-protein kinase 17A (Homo sapiens) (UniProt Q9UEE5). In words: Inhibition of tracer 236 binding to recombinant full length human GST-tagged DRAK1 expressed in baculovirus expression system at 0.1 uM measured after 60 mins by Lanthascreen assay relative to control. In general terms: Time-resolved FRET reads energy transfer from a long-lived donor to a nearby acceptor.

In test [4] the target is Vascular endothelial growth factor receptor 1 (Homo sapiens) (UniProt P17948). In words: Inhibition of recombinant human GST-tagged FLT1 catalytic domain (781 to 1338 residues) expressed in baculovirus expression system at 0.1 uM using tyrosine-4 peptide as substrate incubated for 60 mins by Z'-LYTE assay relative to control.
For test [5], the target named is Serine/threonine-protein kinase PLK1 (Homo sapiens) (UniProt P53350). In words: Inhibition of recombinant full length human His-tagged PLK1 expressed in baculovirus expression system at 0.1 uM using serine/threonine-16 peptide as substrate incubated for 60 mins by Z'-LYTE assay relative to control.
Chain of Serine/threonine-protein kinase PLK1 (Homo sapiens) (P53350 whole entry, the tested form may be a part): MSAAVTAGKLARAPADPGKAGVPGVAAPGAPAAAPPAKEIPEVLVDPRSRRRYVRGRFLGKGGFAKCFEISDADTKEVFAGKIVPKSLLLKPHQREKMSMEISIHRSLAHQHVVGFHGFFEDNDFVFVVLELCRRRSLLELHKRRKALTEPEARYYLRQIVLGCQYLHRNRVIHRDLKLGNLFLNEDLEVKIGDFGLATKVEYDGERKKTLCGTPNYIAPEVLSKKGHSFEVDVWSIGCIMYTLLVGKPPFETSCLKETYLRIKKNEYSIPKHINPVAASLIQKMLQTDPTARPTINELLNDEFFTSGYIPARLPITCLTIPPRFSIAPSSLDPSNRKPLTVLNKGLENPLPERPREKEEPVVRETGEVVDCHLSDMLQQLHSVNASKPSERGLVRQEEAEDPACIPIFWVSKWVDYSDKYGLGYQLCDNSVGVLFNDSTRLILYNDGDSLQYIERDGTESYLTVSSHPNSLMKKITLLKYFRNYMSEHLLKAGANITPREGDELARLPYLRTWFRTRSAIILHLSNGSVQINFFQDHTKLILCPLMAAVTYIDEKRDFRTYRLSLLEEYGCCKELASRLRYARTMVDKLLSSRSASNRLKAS
Test [6] has as its target Ephrin type-A receptor 1 (Homo sapiens) (UniProt P21709). In words: Inhibition of recombinant human GST-tagged EPHA1 (568 to 976 residues) expressed in baculovirus expression system at 0.1 uM using tyrosine-2 peptide as substrate incubated for 60 mins by Z'-LYTE assay relative to control.
In test [7] the target is cGMP-dependent protein kinase 1 (Homo sapiens) (UniProt Q13976). Kind of test: Inhibition of recombinant full length human GST-tagged PKG1 alpha expressed in baculovirus expression system at 0.1 uM using CREBtide as substrate 60 mins by Lanthascreen assay relative to control.
For test [8], the target named is Eukaryotic elongation factor 2 kinase (Homo sapiens) (UniProt O00418). Kind of test: Inhibition of recombinant full length human GST-tagged EEF2K expressed in Escherichia coli expression system at 0.1 uM using serine/threonine-24 peptide as substrate incubated for 60 mins by Z'-LYTE assay relative to control.
Chain of Eukaryotic elongation factor 2 kinase (Homo sapiens) (O00418 whole entry, the tested form may be a part): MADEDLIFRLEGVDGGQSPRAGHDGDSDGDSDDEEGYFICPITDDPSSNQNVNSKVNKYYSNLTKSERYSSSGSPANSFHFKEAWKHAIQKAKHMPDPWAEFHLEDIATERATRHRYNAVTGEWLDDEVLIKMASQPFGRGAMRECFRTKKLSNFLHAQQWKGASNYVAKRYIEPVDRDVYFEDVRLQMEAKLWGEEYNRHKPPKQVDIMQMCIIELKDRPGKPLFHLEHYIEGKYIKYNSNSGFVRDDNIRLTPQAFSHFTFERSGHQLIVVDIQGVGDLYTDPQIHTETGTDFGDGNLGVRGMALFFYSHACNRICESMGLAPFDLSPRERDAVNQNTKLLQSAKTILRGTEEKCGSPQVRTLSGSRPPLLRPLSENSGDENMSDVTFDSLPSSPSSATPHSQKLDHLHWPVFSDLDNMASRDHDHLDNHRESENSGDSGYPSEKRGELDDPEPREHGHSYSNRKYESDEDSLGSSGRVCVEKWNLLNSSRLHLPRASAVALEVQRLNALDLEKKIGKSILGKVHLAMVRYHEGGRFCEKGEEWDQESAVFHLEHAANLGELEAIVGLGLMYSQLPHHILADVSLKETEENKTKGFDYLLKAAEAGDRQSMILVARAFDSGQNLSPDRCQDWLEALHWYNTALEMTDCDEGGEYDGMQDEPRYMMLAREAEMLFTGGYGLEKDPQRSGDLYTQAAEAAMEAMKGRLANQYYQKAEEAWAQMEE
Test [9] has as its target High affinity nerve growth factor receptor (Homo sapiens) (UniProt P04629). In words: Inhibition of recombinant human His-tagged TRKA catalytic domain (441 to 796 residues) expressed in baculovirus expression system at 0.1 uM using tyrosine-1 peptide as substrate incubated for 60 mins by Z'-LYTE assay relative to control.
For test [10], the target named is SRSF protein kinase 1 (Homo sapiens) (UniProt Q96SB4). In words: Inhibition of recombinant full length human His-tagged SRPK1 expressed in baculovirus expression system at 0.1 uM using serine/threonine-18 peptide as substrate incubated for 60 mins by Z'-LYTE assay relative to control.
Chain of SRSF protein kinase 1 (Homo sapiens) (Q96SB4 whole entry): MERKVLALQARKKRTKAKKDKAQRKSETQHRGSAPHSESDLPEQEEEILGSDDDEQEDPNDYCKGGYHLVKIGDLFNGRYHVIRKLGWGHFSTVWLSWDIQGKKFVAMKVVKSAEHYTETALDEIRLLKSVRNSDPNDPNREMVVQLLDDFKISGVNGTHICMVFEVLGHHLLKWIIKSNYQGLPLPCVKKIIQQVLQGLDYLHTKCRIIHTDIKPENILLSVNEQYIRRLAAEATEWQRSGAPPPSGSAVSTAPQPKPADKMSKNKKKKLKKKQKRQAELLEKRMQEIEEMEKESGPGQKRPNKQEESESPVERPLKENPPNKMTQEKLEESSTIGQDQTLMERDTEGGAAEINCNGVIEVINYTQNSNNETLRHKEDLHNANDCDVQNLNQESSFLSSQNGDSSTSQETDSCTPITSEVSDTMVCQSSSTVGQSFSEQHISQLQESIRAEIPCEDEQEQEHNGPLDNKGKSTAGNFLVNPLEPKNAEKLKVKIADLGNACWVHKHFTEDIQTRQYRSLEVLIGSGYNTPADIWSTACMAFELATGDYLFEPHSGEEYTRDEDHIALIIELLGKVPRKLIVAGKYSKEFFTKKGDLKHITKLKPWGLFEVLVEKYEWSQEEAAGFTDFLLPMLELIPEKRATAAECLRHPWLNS
For test [11], the target named is Serine/threonine-protein kinase 33 (Homo sapiens) (UniProt Q9BYT3). Kind of test: Inhibition of tracer 236 binding to recombinant full length human His-tagged STK33 expressed in baculovirus expression system at 0.1 uM measured after 60 mins by Lanthascreen assay relative to control.
In test [12] the target is Serine/threonine-protein kinase Sgk3 (Homo sapiens) (UniProt Q96BR1). Kind of test: Inhibition of recombinant human GST-tagged SGK3 catalytic domain (87 to 496 residues) expressed in baculovirus expression system at 0.1 uM using serine/threonine-6 peptide as substrate incubated for 60 mins by Z'-LYTE assay relative to control.
Chain of Serine/threonine-protein kinase Sgk3 (Homo sapiens) (Q96BR1 whole entry, the tested form may be a part): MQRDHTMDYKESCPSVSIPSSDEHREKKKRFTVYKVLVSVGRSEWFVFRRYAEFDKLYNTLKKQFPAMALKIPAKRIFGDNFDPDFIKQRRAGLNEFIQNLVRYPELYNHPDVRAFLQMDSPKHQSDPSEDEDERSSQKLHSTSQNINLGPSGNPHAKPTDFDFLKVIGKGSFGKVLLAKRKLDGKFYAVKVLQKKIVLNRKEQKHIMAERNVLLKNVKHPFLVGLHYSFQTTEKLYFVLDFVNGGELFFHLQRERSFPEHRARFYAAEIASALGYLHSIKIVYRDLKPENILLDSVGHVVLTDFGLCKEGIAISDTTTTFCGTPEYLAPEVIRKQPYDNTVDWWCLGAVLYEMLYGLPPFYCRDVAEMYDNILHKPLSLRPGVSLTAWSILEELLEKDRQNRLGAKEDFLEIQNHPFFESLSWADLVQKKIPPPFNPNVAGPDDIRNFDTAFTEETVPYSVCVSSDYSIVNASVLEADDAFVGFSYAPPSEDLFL
Test [13] addresses Receptor-interacting serine/threonine-protein kinase 2 (Homo sapiens) (UniProt O43353). Kind of test: Inhibition of tracer 178 binding to recombinant human His-tagged RIPK2 catalytic domain (1 to 299 residues) expressed in baculovirus expression system at 0.1 uM measured after 60 mins by Lanthascreen assay relative to control.
For test [14], the target named is Death-associated protein kinase 1 (Homo sapiens) (UniProt P53355). In words: Inhibition of recombinant human GST-tagged DAPK1 catalytic domain (1 to 363 residues) expressed in baculovirus expression system at 0.1 uM using ZIPtide peptide as substrate incubated for 60 mins by Adapta assay relative to control.
In test [15] the target is Platelet-derived growth factor receptor alpha (Homo sapiens) (UniProt P16234). Kind of test: Inhibition of recombinant human GST-tagged PDGFRalpha (550 to 1089 residues) expressed in baculovirus expression system at 0.1 uM using tyrosine-4 peptide as substrate incubated for 60 mins by Z'-LYTE assay relative to control.
The target in test [16] is Dual specificity mitogen-activated protein kinase kinase 6 (Homo sapiens) (UniProt P52564). In words: Inhibition of recombinant full length human His-tagged MKK6 expressed in baculovirus expression system at 0.1 uM using serine/threonine-3 peptide as substrate incubated for 60 mins by Z'-LYTE assay relative to control.
Chain of Dual specificity mitogen-activated protein kinase kinase 6 (Homo sapiens) (P52564 whole entry): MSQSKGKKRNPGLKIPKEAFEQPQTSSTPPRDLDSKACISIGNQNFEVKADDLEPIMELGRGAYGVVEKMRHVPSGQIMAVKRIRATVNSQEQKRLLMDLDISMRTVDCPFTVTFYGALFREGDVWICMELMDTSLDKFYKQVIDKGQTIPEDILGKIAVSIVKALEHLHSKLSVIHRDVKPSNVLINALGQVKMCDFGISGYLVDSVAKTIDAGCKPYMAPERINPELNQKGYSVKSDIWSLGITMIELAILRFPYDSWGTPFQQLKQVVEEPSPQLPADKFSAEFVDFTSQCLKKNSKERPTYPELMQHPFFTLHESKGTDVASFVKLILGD
Test [17] deals with Cyclin-dependent kinase 5/CDK5 activator 1 (Homo sapiens) (UniProt Q00535+Q15078). Kind of test: Inhibition of recombinant full length human GST/His-tagged CDK5/p25 expressed in baculovirus expression system at 0.1 uM using serine/threonine-12 peptide as substrate incubated for 60 mins by Z'-LYTE assay relative to control.
The target of test [18] is Myosin light chain kinase (Homo sapiens) (UniProt Q32MK0). Kind of test: Inhibition of tracer 236 binding to recombinant full length human GST-tagged MYLK3 expressed in baculovirus expression system at 0.1 uM measured after 60 mins by Lanthascreen assay relative to control.
Chain of Myosin light chain kinase (Homo sapiens) (Q32MK0 whole entry, the tested form may be a part): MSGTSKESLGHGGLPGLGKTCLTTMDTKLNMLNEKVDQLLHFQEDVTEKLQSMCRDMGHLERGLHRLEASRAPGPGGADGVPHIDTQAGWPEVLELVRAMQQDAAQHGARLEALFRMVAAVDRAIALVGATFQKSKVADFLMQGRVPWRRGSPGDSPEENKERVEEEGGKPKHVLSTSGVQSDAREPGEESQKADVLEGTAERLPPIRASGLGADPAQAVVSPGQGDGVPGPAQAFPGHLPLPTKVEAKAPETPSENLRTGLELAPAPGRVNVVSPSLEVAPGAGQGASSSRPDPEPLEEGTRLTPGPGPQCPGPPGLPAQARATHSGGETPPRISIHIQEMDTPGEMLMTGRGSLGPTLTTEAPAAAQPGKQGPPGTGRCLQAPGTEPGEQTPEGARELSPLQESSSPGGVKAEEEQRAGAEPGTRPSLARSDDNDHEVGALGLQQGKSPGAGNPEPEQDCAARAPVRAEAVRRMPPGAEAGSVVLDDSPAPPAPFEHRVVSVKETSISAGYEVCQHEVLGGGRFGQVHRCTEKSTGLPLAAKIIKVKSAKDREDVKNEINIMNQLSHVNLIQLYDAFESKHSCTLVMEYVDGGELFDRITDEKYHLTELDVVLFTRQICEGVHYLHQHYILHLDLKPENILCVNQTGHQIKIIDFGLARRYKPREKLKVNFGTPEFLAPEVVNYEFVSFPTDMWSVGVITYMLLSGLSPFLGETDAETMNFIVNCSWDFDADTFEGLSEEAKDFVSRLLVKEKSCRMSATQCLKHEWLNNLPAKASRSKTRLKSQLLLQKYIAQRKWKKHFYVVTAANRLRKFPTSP
Test [19] has as its target Mitogen-activated protein kinase kinase kinase 8 (Homo sapiens) (UniProt P41279). Kind of test: Inhibition of recombinant human GST-tagged TPL2 catalytic domain (30 to 397 residues) expressed in baculovirus expression system at 0.1 uM using serine/threonine-3 peptide as substrate incubated for 60 mins by Z'-LYTE assay relative to control.
Test [20] deals with Serine/threonine-protein kinase PLK3 (Homo sapiens) (UniProt Q9H4B4). In words: Inhibition of recombinant human GST-tagged PLK3 catalytic domain (58 to 340 residues) expressed in baculovirus expression system at 0.1 uM using serine/threonine-16 peptide as substrate incubated for 60 mins by Z'-LYTE assay relative to control.
Test [21] deals with Maternal embryonic leucine zipper kinase (Homo sapiens) (UniProt Q14680). Kind of test: Inhibition of recombinant human GST-tagged MELK catalytic domain (1 to 340 residues) expressed in baculovirus expression system at 0.1 uM using serine/threonine-17 peptide as substrate incubated for 60 mins by Z'-LYTE assay relative to control.
The target in test [22] is Serine/threonine-protein kinase MRCK alpha (Homo sapiens) (UniProt Q5VT25). Kind of test: Inhibition of recombinant human His-tagged MRCKalpha catalytic domain (1 to 473 residues) expressed in baculovirus expression system at 0.1 uM using serine/threonine-13 peptide as substrate incubated for 60 mins by Z'-LYTE assay relative to control.
Test [23] concerns the target MAP/microtubule affinity-regulating kinase 3 (Homo sapiens) (UniProt P27448). In words: Inhibition of recombinant full length human GST-tagged MARK3 expressed in baculovirus expression system at 0.1 uM using serine/threonine-25 peptide as substrate incubated for 60 mins by Z'-LYTE assay relative to control.

Chain of MAP/microtubule affinity-regulating kinase 3 (Homo sapiens) (P27448 whole entry, looked up): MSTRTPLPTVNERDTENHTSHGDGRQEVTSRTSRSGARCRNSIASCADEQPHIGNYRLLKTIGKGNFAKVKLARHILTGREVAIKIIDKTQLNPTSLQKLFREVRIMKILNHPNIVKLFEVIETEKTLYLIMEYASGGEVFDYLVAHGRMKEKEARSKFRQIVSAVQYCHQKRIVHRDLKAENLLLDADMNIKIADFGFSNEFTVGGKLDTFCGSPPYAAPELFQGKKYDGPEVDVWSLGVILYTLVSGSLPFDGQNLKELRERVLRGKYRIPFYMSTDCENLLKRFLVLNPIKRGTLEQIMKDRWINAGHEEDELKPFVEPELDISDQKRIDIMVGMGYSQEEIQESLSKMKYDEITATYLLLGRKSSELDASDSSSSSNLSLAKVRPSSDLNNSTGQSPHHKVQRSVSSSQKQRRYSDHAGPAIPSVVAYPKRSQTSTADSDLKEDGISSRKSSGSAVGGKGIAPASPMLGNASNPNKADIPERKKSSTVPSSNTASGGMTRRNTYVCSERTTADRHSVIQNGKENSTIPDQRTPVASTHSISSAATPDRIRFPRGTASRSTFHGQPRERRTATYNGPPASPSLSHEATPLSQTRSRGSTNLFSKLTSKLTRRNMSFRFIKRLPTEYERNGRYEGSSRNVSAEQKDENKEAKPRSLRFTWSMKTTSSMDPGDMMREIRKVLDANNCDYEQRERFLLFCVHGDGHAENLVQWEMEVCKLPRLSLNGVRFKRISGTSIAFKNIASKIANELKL
Chain of Receptor-interacting serine/threonine-protein kinase 2 (Homo sapiens) (O43353 whole entry, the tested form may be a part): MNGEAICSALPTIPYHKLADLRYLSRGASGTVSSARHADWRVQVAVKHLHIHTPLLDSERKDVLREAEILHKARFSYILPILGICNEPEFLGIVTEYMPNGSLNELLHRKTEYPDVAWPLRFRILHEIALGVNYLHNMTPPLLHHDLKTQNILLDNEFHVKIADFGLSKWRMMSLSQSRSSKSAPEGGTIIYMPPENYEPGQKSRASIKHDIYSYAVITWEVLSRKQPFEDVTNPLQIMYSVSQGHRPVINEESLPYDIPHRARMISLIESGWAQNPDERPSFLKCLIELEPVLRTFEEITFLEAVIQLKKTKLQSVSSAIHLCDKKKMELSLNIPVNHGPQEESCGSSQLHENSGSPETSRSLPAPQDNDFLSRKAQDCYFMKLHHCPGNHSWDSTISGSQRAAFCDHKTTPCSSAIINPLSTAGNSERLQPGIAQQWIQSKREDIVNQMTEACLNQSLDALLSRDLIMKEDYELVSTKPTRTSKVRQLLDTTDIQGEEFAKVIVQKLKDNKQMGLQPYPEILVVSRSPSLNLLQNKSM

`CCN1CCN(Cc2ccc(Nc3ncc(F)c(-c4cc(F)c5nc(C)n(C(C)C)c5c4)n3)nc2)CC1` [ABEMACICLIB]: the inhibition amounted to 10.5% in test [1]; 24.5% in [2]; 56.2% in [3]; 3% in test [4]; 8.5% in [5]; 8% in test [6]. Further, the inhibition worked out at 1.5% in test [7]; 8% in [8]; 31% in test [9]; 6% in [10]; 50.8% in test [11]; 12% in test [12]. The inhibition is 1.1% in test [13]; 31.2% in test [14]; 4.5% in [15]; 14.3% in [16]; 60.8% in test [17]; 30.8% in test [18]. Moreover, the inhibition was 11% in [19]; -3.5% in test [20]; 12.5% in [21]; 31.5% in test [22]; 16% in test [23].
With `CCN1CC2(C1)CN(c1ccc(Nc3ncc(F)c(-c4cnn5c4[C@H](C)CCCC5)n3)nc1)C2`, the inhibition is 53% in [1]; 56.5% in test [2]; 72% in test [3]; 2.5% in test [4]; 2% in [5]; 9.5% in [6]. The inhibition in [7] is 6%; in test [8] it was 5.5%; in test [9], 20%; in [10] it was 4.5%; in test [11] it was 50%; in [12] it was 7%. The inhibition in test [13] was found to be 2%; in test [14], 14%; in test [15], 2.5%; in test [16], 0%; in test [17], 72%; in test [18] it was 19.5%. Besides, the inhibition in test [19] stood at 26%; in test [20], 7.5%; in test [21] it was 44%; in test [22] it was 1%; in [23], 15%.

By inhibition is commonly meant the relative decrease from the control value, in per cent.
